From patent US9636299B2, “Method for treating diabetic retinopathy” (XAVIER UNIVERSITY OF LOUISIANA, priority 2012, dated 2017)
Residues, ends and D or L forms follow the SMILES beside them.

How the values were obtained:
MMP9 [1] = assay: MMP9 expression in high glucose-treated hRMECs (Western blot); assay type: cell-based, human; conditions: 30 mM glucose 72 hours, 50 or 100 μM apoEdp
Text: (§1) Cell Culture. Primary cultures of human retina microvascular endothelial cells (hRMECs) were purchased from the Applied Cell Biology Research Institute and grown on attachment factor-coated plates in cell systems complete (CSC) medium (Cell Systems, Kirkland, Wash.) supplemented with 20% fetal bovine serum, culture boost (animal derived growth factors) and bac-off (antibiotics). The primary hRMECs were used in their passages 4 to 6. The 18-a.a. apoE mimetic peptide apoEdp (SEQ ID NO:3, Ac-LRKLRKRLLLRKLRKRLL-amide), derived from the human apolipoprotein E receptor-binding region (see SED ID NO:1) between residues 141 and 149, was synthesized (Genemed, Arlington, Tex.) with a purity of greater than 95%. The apoEdp peptide was dissolved in phosphate-buffered saline (“PBS”) at a concentration appropriate for further experimental use. […]
(§2) Western Blotting. […] The total protein concentration was determined using a BCA protein assay kit (Pierce, Rockford, Ill.). […] To ensure the equal loading of protein in each lane, each membrane was stripped and re-probed with an antibody against β-actin, and the chemiluminescence was detected as described previously. After scanning the blots with a flatbed scanner, band intensities were analyzed using ImageJ (NIH) and the relative intensity values were normalized to control values. […]

MMP9 [2] = assay: Laser photocoagulation-induced retinal injury in mice, MMP9 real-time RT-PCR; assay type: in vivo, mouse; conditions: apoEdp 40 mg/kg intraperitoneally once each day for 7 days, vs mice without apoEdp
Procedure: Laser Photocoagulation-Induced Retinopathy. Female mice (C57BL/6J), aged 6-8 weeks, were used for retinal laser photocoagulation studies. The mice were treated and maintained in accordance with the ARVO Statement for the Use of Animals in Ophthalmic and Vision Research. The mice were anesthetized by intraperitoneal injection of a mixture of ketamine (100 mg/kg; Warner Lambert Co., Morris Plains, N.J.) and xylazine (10 mg/kg; Bayer AG, Leverkusen, Germany), and the pupils dilated with 2.5% tropicamide (Alcon, Fort Worth, Tex.). […]
RNA Extraction, Reverse Transcription, & PCR. […] Gene expression was measured at RNA level per 100 ng of total RNA using one-step RT-PCR kit (Bio-Rad, Hercules, Calif.). Four host genes (mouse GAPDH, mouse MMP2, mouse HPSE-1 (heparanase-1), and mouse MMP9) were analyzed to confirm relative quantitative expression levels. The primer pairs used were specifically designed and synthesized by Qiagen GmbH, Hilden, Germany (Quantitech Primer assay kit, for each host gene, catalog numbers QT01658692, QT00088396, QT00009555, and QT00040040, respectively). One-step Real-time quantitative RT-PCR reactions were performed in a 50-μL volume containing a solution of 1× supermix (iQ SYBR Green; Bio-Rad, Hercules, Calif.), 1 μM mix of forward and reverse primers, and 5 μL total RNA. […] Relative quantitative expression levels were determined for each gene. […]

[3] = system: endothelial nitric oxide synthase (eNOS); assay: eNOS expression in high glucose-treated hRMECs (Western blot); assay type: cell-based, human; conditions: 100 μM apoEdp, 30 minute treatment
Text: as §1, §2

Structure (SMILES): CC(=O)N[C@@H](CC(C)C)C(=O)N[C@@H](CCCNC(=N)N)C(=O)N[C@@H](CCCCN)C(=O)N[C@@H](CC(C)C)C(=O)N[C@@H](CCCNC(=N)N)C(=O)N[C@@H](CCCCN)C(=O)N[C@@H](CCCNC(=N)N)C(=O)N[C@@H](CC(C)C)C(=O)N[C@@H](CC(C)C)C(=O)N[C@@H](CC(C)C)C(=O)N[C@@H](CCCNC(=N)N)C(=O)N[C@@H](CCCCN)C(=O)N[C@@H](CC(C)C)C(=O)N[C@@H](CCCNC(=N)N)C(=O)N[C@@H](CCCCN)C(=O)N[C@@H](CCCNC(=N)N)C(=O)N[C@@H](CC(C)C)C(=O)N[C@@H](CC(C)C)C(N)=O [apoEdp, Ac-LRKLRKRLLLRKLRKRLL-amide] (Ac-LRKLRKRLLLRKLRKRLL-NH2)
- High glucose-induced expression of MMP9 (MMP9 [1]): suppressed the expression
- Expression of MMP9 in retina (MMP9 [2]): dramatically reduced
- Elevated expression of eNOS induced by 30 mM D-glucose [3]: prevented
